Reference: patent EP1191024A1, “Thiadiazines and their use as inhibitors of metalloproteinases” (Tschesche, Harald, priority 2000, dated 2002)
Counter-ions that a name gives are not always drawn.

Assays:
Experiment in all cases: MMP microfluorometric profiling assay (fluorogenic Mca-peptide substrate)
Assay type in all cases: biochemical
[1] = molecular target: T1, MMP-1 (Homo sapiens, UniProt P03956)
T1 construct: MMP-1 from human rheumatoid synovial fibroblasts was purchased; purchased Calbiochem-Novabiochem Corporation, LaJolla; host or cells: human rheumatoid synovial fibroblasts
T1 sequence (P03956 100-469): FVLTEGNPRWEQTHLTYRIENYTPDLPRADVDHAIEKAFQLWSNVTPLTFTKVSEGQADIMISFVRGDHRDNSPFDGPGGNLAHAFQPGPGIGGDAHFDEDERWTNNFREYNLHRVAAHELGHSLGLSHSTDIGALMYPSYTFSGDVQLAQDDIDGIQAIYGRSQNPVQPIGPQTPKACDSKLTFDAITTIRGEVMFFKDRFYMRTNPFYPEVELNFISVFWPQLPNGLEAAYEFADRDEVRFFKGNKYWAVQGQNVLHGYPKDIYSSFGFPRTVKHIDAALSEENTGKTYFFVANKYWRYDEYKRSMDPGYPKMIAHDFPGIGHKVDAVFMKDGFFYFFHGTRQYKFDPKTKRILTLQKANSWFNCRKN

[2] = molecular target: T2, MMP-9 (Homo sapiens, UniProt P14780); conditions: for percent inhibition: MMP-9, @ 15 (µM)
T2 construct: from tissue; host or cells: human plasma buffy coat (PMNL)

[3] = molecular target: T3, cdMMP-12 (Homo sapiens, UniProt P39900)
T3 construct: The catalytic domain of MMP-12 was expressed in E. coli; made in house; host or cells: E. coli
T3 sequence (P39900 106-263 limits assumed): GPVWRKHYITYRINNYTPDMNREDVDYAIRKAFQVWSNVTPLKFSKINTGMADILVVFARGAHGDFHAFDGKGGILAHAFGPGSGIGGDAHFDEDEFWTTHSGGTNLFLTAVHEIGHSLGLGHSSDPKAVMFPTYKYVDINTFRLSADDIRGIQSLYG

T2 sequence (P14780 107-707 limits assumed): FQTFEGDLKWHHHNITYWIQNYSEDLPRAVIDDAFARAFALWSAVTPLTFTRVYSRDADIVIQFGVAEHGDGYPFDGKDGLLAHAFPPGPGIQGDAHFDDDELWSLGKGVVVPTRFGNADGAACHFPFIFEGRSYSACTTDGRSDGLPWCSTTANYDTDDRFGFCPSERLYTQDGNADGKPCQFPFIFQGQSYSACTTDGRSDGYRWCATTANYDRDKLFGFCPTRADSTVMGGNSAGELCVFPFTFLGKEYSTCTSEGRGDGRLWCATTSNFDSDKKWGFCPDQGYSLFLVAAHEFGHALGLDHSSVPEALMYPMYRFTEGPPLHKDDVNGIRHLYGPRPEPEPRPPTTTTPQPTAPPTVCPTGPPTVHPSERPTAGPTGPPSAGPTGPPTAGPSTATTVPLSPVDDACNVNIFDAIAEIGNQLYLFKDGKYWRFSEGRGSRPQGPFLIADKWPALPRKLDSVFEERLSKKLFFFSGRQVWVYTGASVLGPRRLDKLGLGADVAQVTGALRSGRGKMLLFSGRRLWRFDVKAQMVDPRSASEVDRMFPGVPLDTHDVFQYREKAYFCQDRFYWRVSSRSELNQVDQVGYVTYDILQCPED

C[C@@H](NS(=O)(=O)c1ccccc1)C(=O)NC1=NN=C(c2ccc(C#N)cc2)CS1 [Example 1, (2R)-N-[5-(4-Cyanophenyl)-6H-1,3,4-thiadiazine-2-yl]-2-[(phenylsulfonyl)amino]-propanamide]
IC50 [1]: 451 nM | IC50 [2]: 232 nM | IC50 [3]: 444 nM

CC(C)[C@@H](NS(=O)(=O)c1ccccc1)C(=O)NC1=NN=C(c2ccc(Cl)cc2)CS1 [Example 2, (2R)-N-[5-(4-Chlorophenyl)-6H-1,3,4-thiadiazin-2-yl]-3-methyl-2-[(phenylsulfonyl)amino]butanamide]
IC50 [1]: 629 nM | percent inhibition [2]: 40%^a)@ 15 | IC50 [3]: 426 nM

C[C@H](NS(=O)(=O)c1ccccc1)C(=O)NC1=NN=C(c2ccc(C#N)cc2)CS1 [Example 3, (2S)-N-[5-(4-Cyanophenyl)-6H-1,3,4-thiadiazin-2-yl]-2-[(phenylsulfonyl)amino]-propanamide]
IC50 [1]: 449 nM | IC50 [2]: 329 nM | IC50 [3]: 447 nM

C[C@H](NS(=O)(=O)c1ccccc1)C(=O)NC1=NN=C(c2ccc(C(F)(F)F)cc2)CS1 [Example 4, (2S)-2-[(Phenylsulfonyl)amino]-N-{5-[4-(trifluormethyl)phenyl]-6H-1,3,4-thiadiazin-2-yl}propanamide]
IC50 [1]: 490 nM | IC50 [2]: 1040 nM | IC50 [3]: 367 nM

C[C@H](NS(=O)(=O)c1ccccc1)C(=O)NC1=NN=C(c2ccc(Br)cc2)CS1 [Example 6, (2S)-N-[5-(4-Bromophenyl)-6H-1,3,4-thiadiazin-2-yl]-2-[(phenylsulfonyl)amino]-propanamide]
IC50 [2]: 686 nM | IC50 [3]: 533 nM

C[C@H](NS(=O)(=O)c1ccccc1)C(=O)NC1=NN=C(c2ccc([N+](=O)[O-])cc2)CS1 [Example 9, (2S)-N-[5-(4-Nitrophenyl)-6H-1,3,4-thiadiazin-2-yl]-2-[(phenylsulfonyl)amino]-propanamide]
IC50 [1]: 294 nM | IC50 [2]: 552 nM | IC50 [3]: 342 nM

C[C@H](NS(=O)(=O)c1ccccc1)C(=O)NC1=NN=C(c2ccc(Cl)s2)CS1 [Example 10, (2S)-N-[5-(5-Chloro-2-thienyl)-6H-1,3,4-thiadiazin-2-yl]-2-[(phenylsulfonyl)-amino]propanamide]
IC50 [1]: 520 nM | IC50 [2]: 722 nM | IC50 [3]: 298 nM

COc1ccc(C2=NN=C(NC(=O)[C@H](C)NS(=O)(=O)c3ccccc3)SC2)cc1 [Example 12, (2S)-N-[5-(4-Methoxyphenyl)-6H-1,3,4-thiadiazin-2-yl]-2-[(phenylsulfonyl)-amino]propanamide]
IC50 [1]: 663 nM | IC50 [2]: 1400 nM | IC50 [3]: 412 nM

C[C@@H](NS(=O)(=O)c1ccccc1)C(=O)NC1=NN=C(c2ccc(F)cc2)CS1 [Example 14, (2R)-N-[5-(4-Fluorophenyl)-6H-1,3,4-thiadiazin-2-yl]-2-[(phenylsulfonyl)amino]-propanamide]
IC50 [1]: 725 nM | IC50 [2]: 216 nM | IC50 [3]: 425 nM

COc1ccc(S(=O)(=O)NCC(=O)NC2=NN=C(c3c(F)c(F)c(F)c(F)c3F)CS2)cc1 [Example 16, 2-{[(4-Methoxyphenyl)sulfonyl]amino}-N-[5-(2,3,4,5,6-pentafluorophenyl)-6H-1,3,4-thiadiazin-2-yl]acetamide]
IC50 [2]: 2570 nM | IC50 [3]: 920 nM

COc1ccc(S(=O)(=O)N[C@@H](C)C(=O)NC2=NN=C(c3ccc(C)cc3)CS2)cc1 [Example 17, (2S)-2-{[(4-Methoxyphenyl)sulfonyl]amino}-N-[5-(4-methylphenyl)-6H-1,3,4-thiadiazin-2-yl]propanamide]
IC50 [2]: 689 nM | IC50 [3]: 436 nM

CC(C)(C)c1ccc(S(=O)(=O)NCC(=O)NC2=NN=C(c3ccc(Cl)cc3Cl)CS2)cc1 [Example 18, 2-{[(4-tert-Butylphenyl)sulfonyl]amino}-N-[5-(2,4-dichlorophenyl)-6H-1,3,4-thiadiazin-2-yl]acetamide]
IC50 [1]: 424 nM | IC50 [2]: 2600 nM | IC50 [3]: 657 nM

COc1ccc(S(=O)(=O)NCC(=O)NC2=NN=C(c3ccc(Cl)cc3Cl)CS2)cc1 [Example 19, N-[5-(2,4-Dichlorophenyl)-6H-1,3,4-thiadiazin-2-yl]-2-{[(4-methoxyphenyl)-sulfonyl]amino}acetamide]
IC50 [2]: 661 nM | IC50 [3]: 259 nM

CC(C)[C@H](NS(=O)(=O)c1ccccc1)C(=O)NC1=NN=C(c2ccc(Cl)cc2)CS1 [Example 22, (2S)-N-[5-(4-Chlorophenyl)-6H-1,3,4-thiadiazin-2-yl]-3-methyl-2-[(phenylsulfonyl)amino]butanamide]
IC50 [2]: 851 nM | IC50 [3]: 463 nM

O=C(CC1NC(=O)NC1=O)NC1=NN=C(c2ccc(Cl)cc2)CS1 (stereo not drawn) [Example 23, N-[5-(4-Chlorophenyl)-6H-1,3,4-thiadiazin-2-yl]-2-(2,5-dioxo-4-imidazolidinyl)-acetamide]
percent inhibition [2]: 40%^a)@ 15 | IC50 [3]: 380 nM

O=C(CC1NC(=O)NC1=O)NC1=NN=C(c2ccc(Br)cc2)CS1 (stereo not drawn) [Example 24, N-[5-(4-Bromophenyl)-6H-1,3,4-thiadiazin-2-yl]-2-(2,5-dioxo-4-imidazolidinyl)-acetamide]
percent inhibition [2]: 45%^a)@ 15 | IC50 [3]: 297 nM

O=C(CC1NC(=O)NC1=O)NC1=NN=C(c2ccc(C3CCCCC3)cc2)CS1 (stereo not drawn) [Example 25, N-[5-(4-Cyclohexylphenyl)-6H-1,3,4-thiadiazin-2-yl]-2-(2,5-dioxo-4-imidazolidinyl)acetamide]
percent inhibition ([1]; MMP-1, @ 15 (µM)): 67%^a)@ 15 | percent inhibition [2]: 49%^a)@ 15 | IC50 [3]: 1420 nM

O=C(CC1NC(=O)NC1=O)NC1=NN=C(c2ccc(N3CCCC3)cc2)CS1 (stereo not drawn) [Example 26, 2-(2,5-Dioxo-4-imidazolidinyl)-N-{5-[4-(1-pyrrolidinyl)phenyl]-6H-1,3,4-thiadiazin-2-yl}acetamide]
IC50 [2]: 517 nM | IC50 [3]: 217 nM

C[C@H](NS(=O)(=O)N1CCOCC1)C(=O)NC1=NN=C(c2ccc(Cl)cc2)CS1 [Example 28, (2S)-N-[5-(4-Chlorophenyl)-6H-1,3,4-thiadiazin-2yl-]-2-[(4-morpholinylsulfonyl)amino]propanamide]
IC50 [1]: 537 nM | IC50 [2]: 1200 nM | IC50 [3]: 330 nM

C[C@H](NS(=O)(=O)c1cccnc1)C(=O)NC1=NN=C(c2ccc(Cl)cc2)CS1 [Example 29, (2S)-N-[5-(4-Chlorophenyl)-6H-1,3,4-thiadiazin-2-yl]-2-[(3-pyridylsulfonyl)-amino]propanamide]
IC50 [1]: 507 nM | IC50 [2]: 257 nM | IC50 [3]: 403 nM

O=C1C[C@@H](C(=O)NC2=NN=C(c3ccc(Cl)cc3)CS2)NC(=O)N1 [Example 30, (4S)-N-[5-(4-Chlorophenyl)-6H-1,3,4-thiadiazin-2-yl]-2,6-dioxohexahydro-4-pyrimidinecarboxamide]
IC50 [1]: 560 nM | IC50 [2]: 780 nM | IC50 [3]: 654 nM

C=CCNC1=NN=C(c2ccc(Cl)cc2)CS1 [Example 31, N-Allyl-5-(4-chlorophenyl)-6H-1,3,4-thiadiazin-2-amine hydrobromide]
IC50 [2]: 783 nM | IC50 [3]: > 15000 nM
